The record followed here is US20070142396A1, “Treatment of pain with 1-[3-[4-(3-chlorophenyl)-1-piperazinyl]propyl]-5-methoxy-3,4-dihydro-2(1H)-quinolone or salt thereof” (Vela Pharmaceuticals, Inc., priority 2005, published 2007).

The assay concerns rats with L5 spinal nerve ligation (SNL model). In words: Spinal nerve ligation (L5) neuropathic pain model, mechanical threshold with von Frey filaments (Example 4). To be noted: 100 mg/kg oral. The format is in vivo, rat. The text has this: A total of 18 Sprague-Dawley (CD sub-strain) young adult (weight: 150-175 g) male rats were purchased from Harlan Sprague Dawley Company (Indianapolis, Ind.), Alabama colony. The rats were kept three per cage and had free access to food and water. Animals were kept in a room with a reversed light-dark cycle (light: 8:00 PM-8:00 AM) for 1 week before experimental manipulations. Ten rats were allocated to the present study. Eight rats were allocated to the study of Example 5, below.
The spinal nerve ligation (SNL) model of neuropathic pain was produced in all rats as described by Kim and Chung (Pain, 50, 355-363, 1992). Briefly, under gaseous anesthesia using halothane (3% for induction and 1.5% for maintenance) in oxygen, the left L5 spinal nerve was exposed by removing the paraspinal muscles and the transverse process of the L6 vertebra. The very proximal portion of the L5 spinal nerve was tightly ligated with 6-0 silk suture. The wounds were closed and anesthesia was discontinued. Rats were kept on a heated blanket until they had completely recovered from anesthesia.
OPC-14523 was dispersed in 0.5% tragacanth in distilled water at 20 mg/ml. It was administered as a oral injection in a dose of 100 mg/kg body weight. Gabapentin was prepared at 10 mg/ml in saline and was administered at 50 mg/kg body weight i.p. Gabapentin is a drug that was originally developed as an anticonvulsant but is now widely used as an analgesic for neuropathic pain (Abdi et al., Anesthesia & Analgesia 87:1360-1366 (1998)).
Ten rats were utilized in a Latin-square-design study comparing the activity of OPC-14523 and other compounds against neuropathic pain. Behavioral tests were conducted twice (1 day and 1 hour) before, as well as 1 and 4 days after, the neuropathic surgery. […] The ten rats were randomly divided into five groups of two rats each. […]
This procedure was repeated five times. […] The result was that all ten animals received each of the indicated five compounds in random order and then had mechanical thresholds determined at the indicated times.
Behavioral tests were conducted in a non-blind fashion. The foot withdrawal threshold to mechanical stimuli applied to the paw (mechanical threshold) was measured, as an indicator of mechanical sensitivity of the affected paw. The foot withdrawal threshold was measured using von Frey filaments. […] The mechanical thresholds were measured by using the “up-and-down” method (Chaplan et al., J. Neurosci. Methods 53(1):55-63, 1994), following the procedures described in previous studies (Park et al., Pain 87(2):171-179, 2000; Xie et al., J. Pain 2(5):270-278, 2001; Baik et al., J. Pain 4:212-221, 2003). […]

On to `COc1cccc2c1CCC(=O)N2CCCN1CCN(c2cccc(Cl)c2)CC1` [OPC-14523, 1-[3-[4-(3-chlorophenyl)-1-piperazinyl]propyl]-5-methoxy-3,4-dihydro-2(1H)-quinolone], for which the “level of mechanical threshold reached relative to level prior to ligation” value is listed as “comparable to the level observed prior to ligation”. Moreover, where the note is “0.5-6 hours”, the “effect on mechanical threshold of the lesioned paw for foot withdrawals” value is “significantly increased”.
